The text below walks through data of patent US20240075087A1, “COMPOSITIONS AND METHODS COMPRISING HEMP EXTRACT FOR THE TREATMENT OF ANIMALS IN NEED” (Portland Technology Holdings LLC, priority 2021, published 2024).

Type in all cases: cell-based, canine
The test system of experiment [1] is 17-71, CMT12 and D17 cell lines. The experiment is described as follows: Time course Western blot of signalling pathways, autophagy and caspase 3. How it is done:
Cells are plated on 100 mm tissue culture-treated plates and incubated overnight in complete medium until 60% confluency is reached. […] Cells are harvested and lysed at each time point for control and CBD treated cells using mammalian lysis buffer (25 mM Tris, 100 mM NaCl, 1 mM EDTA, 1% Triton X-100, pH 7.4), and then centrifuged for 5 minutes at 12 000 g at 4° C. The supernatant is collected and the protein concentration is determined using the Bradford assay (Coomassie-dye; ThermoFisher Scientific Pierce, Waltham, Massachusetts). […] Membranes are incubated overnight in primary antibody solutions at a dilution of 1:1000 in TBST on a rocking platform at 4° C. Primary antibodies confirmed as cross reactive with canine cells or tissues include mouse extracellular regulated kinase (ERK) (R&D Biosciences, Boston, Massachusetts); rabbit anti-protein kinase B (AKT), Ser473 phosphorylated-AKT, stress-activated protein kinase/jun-amino-terminal kinase (SAPK/JNK), Thr183/Tyr185 phosphorylated-SAPK/JNK, mammalian target of rapamycin (mTOR), Ser2448 phosphorylated-mTOR, anti-Thr202/Tyr204 phosphorylated p44/42 MAPK (ERK1/2), anti-p38, anti-phosphorylated p38, anti-p62 and anti-LC3 A/B (Cell Signalling Technology, Danvers, Massachusetts)(e.g., Syrjä P, Anwar T, Jokinen T, Kyöstilä K, Jäderlund K H, Cozzi F, Rohdin C, Hahn K, Wohlsein P, Baumgärtner W, Henke D, Oevermann A, Sukura A, Leeb T, Lohi H, and Eskelinen E L, Basal Autophagy Is Altered in Lagotto Romagnolo Dogs with an ATG4D Mutation, Vet Pathol, 2017 November, 54(6), pp. 953-963, doi: 10.1177/0300985817712793; Gordon I K, Ye F, and Kent M, Evaluation of the mammalian target of rapamycin pathway and the effect of rapamycin on target expression and cellular proliferation in osteosarcoma cells from dogs, Amer J Vet Res, 2008, 69, pp. 1079-1084; Ikari A, Atomi K, Kinjo Y, and Sugatani J, Magnesium deprivation inhibits a MEK-ERK cascade and cell proliferation in epithelial Madin-Darby canine kidney cells, Life Sci, 2010, 86, pp. 766-773; and Levine C B, Bayle J, Biourge V, and Wakshlag J J, Effects and synergy of feed ingredients on canine neoplastic cell proliferation, BMC Vet Res, 2016, 12(1), 159, which are incorporated herein by reference in their entirety). Membranes are washed three times with TBST and incubated at room temperature for 1 hour in the corresponding secondary anti-rabbit IgG or anti-mouse IgG horseradish peroxidase-conjugated antibody at a dilution of 1:2000 (Cell Signalling Technology, Danvers, MA). Membranes are washed three times with TBST and visualized with a chemi-luminescent reagent (Clarity Western ECL Substrate; Bio-Rad, Hercules, California). Digital images are captured using an imaging system (Biospectrum 410; UVP, Upland, California or FluorChem E; Cell Biosciences, San Jose, California). Each blot is performed twice from two different experiments to confirm findings.
A general note: A western blot detects proteins with antibodies after separation by electrophoresis.

Another experiment has as its system CMT12 cells. The experiment is described as follows: Trypan blue exclusion assay, CMT12. The conditions noted are these: 48 hours, vehicle control 3±1%. How it is done: The trypan blue exclusion assay is performed on canine primary dermal fibroblasts (CDF) because of the slow rate of proliferation and low metabolic activity of these normal canine cells, precluding productive MTT assays. The effects of CBD treatments are compared with the results obtained on the 17-71, CMT12 and D17 cell lines for comparative purposes. For the CDF cells, applied cell extracellular matrix (ABM) is applied overnight to 24-well tissue culture-treated plates (Applied Biological Materials [ABM], Richmond, BC, Canada). For all cell lines, cells are plated at a density of 5×10^3 cells per well and incubated until 60% confluent before treatment with methanol vehicle control, 3.75, 7.5, and 15 μg/mL of CBD to cells for 48 hours. Cells are then trypsinized, collected and centrifuged at 1900 g for 10 minutes. With the exception of the 17-71 cell line, cells are detached with Accumax (Invitrogen, Carlsbad, California). The cell pellet is resuspended in 0.1% trypan blue (Sigma Aldrich, St Louis, Missouri) in PBS solution, loaded on a Cell Countess disposable cell counting slide with automatic counting of all positively stained cells in the Countess II Cell Counter under identical settings for each cell line (Invitrogen; ThermoFisher Scientific, Carlsbad, California) using the same parameters for each cell line. All treatments are performed in triplicate and the percent of viable cells are averaged.

Experiment [2] relates to HMPOS osteosarcoma cell line. The experiment is described as follows: 48 hours MTT proliferation assay, HMPOS. The conditions noted are these: pure compound. The method, then:
3-(4,5-Dimethylthaizol-2-yl)-2,5-diphenyltetrazolium bromide (MTT) assays are performed on all previously described cell lines; CMT12, HMPOS, D17, Abrams and 17-71. […] Cells are treated with vehicle (methanol or ethanol/DMSO mix) or various concentrations of the CBD, CBDA or CBD-rich hemp extract ranging from 0.42 to 20 μg/mL in serial dilution for 48 hours. MTT assays are performed after 48 hours of treatment by adding 20 μL of MTT dye ([…] filtered 5 mg/mL in phosphate-buffered saline [PBS]) to each well and incubating at 37° C. in 5% CO2 for 2 hours. The media is then aspirated, washed once with 200 μL of PBS and then solubilized in 200 μL of ethanol. Immediate analysis of the optical density of each well is performed using a spectrophotometric plate reader (Epoch; Biotek, Winooski, Vermont) at a wavelength of 570 nm as previously described (e.g., Vega-Avila E and Pugsley M K, An overview of colorimetric assay methods used to assess survival or proliferation of mammalian cells, Proc West Pharmacol Soc., 2011, 54, pp. 10-14 which is incorporated herein by reference in its entirety). The percent proliferating cells of control for each concentration is averaged and reported as a mean+/—SD from triplicate wells over three experiments.
For CBD, CBDA and hemp extract concentrations needed to obtain a 50% inhibition of cell proliferation (IC50) are then calculated across experiments by Probit analysis using XLFit5 software (IDBS, Guildford, United Kingdom) for reporting the results for each cell line.
In general terms: Formazan colour is commonly taken as a measure of viable cells.

Converted amounts (≈) assume the structure as drawn.

As usually defined, the IC50 is the point on the concentration scale where inhibition reaches its midpoint. As to `C=C(C)[C@@H]1CCC(C)=C[C@H]1c1c(O)cc(CCCCC)cc1O` [CBD, cannabidiol], the “caspase 3 activation” value in experiment [1] (10 μg/mL CBD, 2, 4, 8 hours) is “activation of caspase 3 which can also be seen at 2 hours in the 17-71 cells, but is not evident until hour 8 in the CMT12 and D17 CBD treated cells”. Besides, the “AKT, phosphorylated-AKT, mTOR and phosphorylated-mTOR immunoblots” value in experiment [1] (10 μg/mL CBD, 2, 4 and 8 hours) is “no depression or increased intensity of the signal over time”. In addition, in experiment [1] (10 μg/mL CBD, 2 to 8 hours, all three cell lines), the “LC3II proportion of LC3 protein” value is recorded as “increase in the LC3II proportion of LC3 protein”. Moreover, the “ERK and JNK phosphorylation” value in experiment [1] (10 μg/mL CBD, 8 hour time-course vs methanol vehicle) is “repeatable increases in both ERK and JNK phosphorylation across all three cell lines”. The “autophagy cargo carrier protein p62 (western blotting)” value in experiment [1] (10 μg/mL CBD, over 8 hours) is “marked decrease”. The “p38 phosphorylation and activation” value in experiment [1] (CBD treatment) is “minimal influence on the p38 phosphorylation and activation”. The “cleaved caspase 3 (17 Kda) immunoblotting” value in experiment [1] (after 8 and 16 hours of CBD treatment vs methanol vehicle control) is “cleaved caspase across all cell lines at both time points”. The “percent trypan blue positive cells” value was 4±2% in the experiment on CMT12 cells (3.75 μg/mL CBD), 9±3% in the experiment with CMT12 cells (7.5 μg/mL CBD) and 87%±8% in the experiment on CMT12 cells (15 μg/mL CBD). The IC50 in experiment [2] (Canis lupus familiaris, read-out: IC50 (Probit)) is 3.6 µg/mL (≈ 11.4 µM). For the same compound, the “concentrations that significantly diminished proliferation vs vehicle control” value in experiment [2] (P<0.05) was not below 5 µg/mL.
